Here are results for 29 compounds from ChEMBL document CHEMBL1143508, “Design, synthesis, and structure-activity relationships of tetrahydroquinoline-based farnesyltransferase inhibitors” (Bioorg Med Chem Lett, 2005).

pIC50: −log10 of the molar value. Where only a bound is given, the exact number is not on record here.

For assay [1], the target named is T1, Protein farnesyltransferase (Rattus norvegicus) (UniProt Q04631+Q02293). Description: Percentage cellular reversion of H-ras transformed Rat-1 cells at 100 nM. The assay is classed as functional, cell-based.
In assay [2] the target is Protein farnesyltransferase (Homo sapiens, UniProt P49354+P49356). In words: Inhibition of human farnesyltransferase. The assay is classed as protein-complex assay.
Assay [3] deals with Protein farnesyltransferase (Rattus norvegicus, UniProt Q02293+Q04631). Description: Inhibition of cellular reversion in H-ras transformed Rat-1 cells. The assay is classed as functional, cell-based.
In assay [4] the target is T1, Protein farnesyltransferase (Rattus norvegicus). Description: Percentage cellular reversion in H-ras transformed Rat-1 cells at 1 uM. The assay is classed as functional, cell-based.
The target is the same in assay [5]. Description: Percentage cellular reversion in H-ras transformed Rat-1 cells at 10 uM. The assay is classed as functional, cell-based.

The term pIC50 denotes −log10 of the IC50, conventionally taken in molar units. Low readings indicate a large IC50, high ones a small IC50. Regarding `Cn1cncc1CN1CC(N(Cc2ccsc2)S(=O)(=O)c2ccccc2)Cc2cc(C#N)ccc21` (racemic), in assay [1], the Cellular reversion worked out at 90%. The same compound gave a pIC50 in assay [2] of 8.60.

Turning to `C=C(C)CN(C1Cc2cc(C#N)ccc2N(Cc2cncn2C)C1)S(=O)(=O)c1ccccn1` (stereo not given), in assay [1], the Cellular reversion is 85%. For the same compound, the pIC50 in assay [2] is 9.05; in assay [3] it was 7.22.

Regarding `C=C(C)CN(C1Cc2cc(C#N)ccc2N(Cc2cncn2C)C1)S(=O)(=O)c1ccccc1` (stereo not given), in assay [1], the Cellular reversion turned out to be 95%. Further, the pIC50 in assay [2] was 9.05.

As to `CN(C1Cc2cc(C#N)ccc2N(Cc2cncn2C)C1)S(=O)(=O)c1cccnc1` (stereo not given), the Cellular reversion in assay [1] turned out to be 0%; in assay [4], 10%. The pIC50 in assay [2] was 7.77.

In the case of `Cn1cnc(S(=O)(=O)N(CC(=O)OC(C)(C)C)C2Cc3cc(C#N)ccc3N(Cc3cncn3C)C2)c1` (stereo not given), the Cellular reversion in assay [1] turned out to be 90%. Besides, the values for the pIC50 in assay [2] and in assay [3] were 9.22 and 7.52, respectively.

On to `Cn1cncc1CN1C[C@@H](N(Cc2ccsc2)S(=O)(=O)c2ccccc2)Cc2cc(C#N)ccc21`, for which, in assay [1], the Cellular reversion is 85%. For the same compound, the pIC50 in assay [2] is 8.96.

`C=C(C)CN(C1Cc2cc(C#N)ccc2N(Cc2cncn2C)C1)S(C)(=O)=O` (stereo not given): in assay [1], the Cellular reversion stood at 90%. The pIC50 was 9.10 in assay [2] and 8.10 in assay [3].

The compound `C=C(C)CN(C1Cc2cc(C#N)ccc2N(Cc2cncn2C)C1)S(=O)(=O)c1cccnc1` (stereo not given) had a Cellular reversion in assay [1] of 70%. Besides, the pIC50 in assay [2] is 8.92; in assay [3], 7.00.

`C=C(C)CN(C1Cc2cc(C#N)ccc2N(Cc2cncn2C)C1)S(=O)(=O)c1cn(C)cn1` (stereo not given) gave a Cellular reversion in assay [1] of 80%. The pIC50 in assay [2] was 9.52; in assay [3] it was 7.30.

Turning to `Cn1cncc1CN1CC(N(CC(=O)OC(C)(C)C)S(=O)(=O)c2cccnc2)Cc2cc(C#N)ccc21` (stereo not given), the Cellular reversion in assay [1] was determined as 30%. Also, the results for the pIC50 in assay [2] and in assay [3] were 8.41 and 6.65, respectively.

As to `Cn1cncc1CN1CC(NS(=O)(=O)c2ccccc2)Cc2cc(C#N)ccc21` (stereo not given), the results for the Cellular reversion in assay [1] and in assay [5] were 0% and 30%, respectively. The compound further gave a pIC50 in assay [2] of 8.00.

The compound `Cn1cncc1CN1CC(N(CC(=O)OC(C)(C)C)S(=O)(=O)c2ccccn2)Cc2cc(C#N)ccc21` (stereo not given) returned a Cellular reversion in assay [1] of 85%. This compound gave a pIC50 in assay [3] of 8.00.

Regarding `Cn1cncc1CN1CC(N(Cc2ccccc2)S(C)(=O)=O)Cc2cc(C#N)ccc21` (stereo not given), the Cellular reversion in assay [1] is 0%; in assay [4] it was 85%. The pIC50 in assay [2] was 8.55.

As for `Cn1cc(S(=O)(=O)N(Cc2ccccc2)C2Cc3cc(C#N)ccc3N(Cc3cncn3C)C2)cn1` (stereo not given), the Cellular reversion in assay [1] was 75%. The compound also had a pIC50 in assay [2] of 8.34.

Turning to `Cn1cncc1CN1CC(N(Cc2ccccc2)S(=O)(=O)c2cccnc2)Cc2cc(C#N)ccc21` (stereo not given), the Cellular reversion in assay [1] was 85%. Also, the pIC50 in assay [2] was 9.05; in assay [3] it was 7.15.

On to `CN(C1Cc2cc(C#N)ccc2N(Cc2cncn2C)C1)S(=O)(=O)c1ccccn1` (stereo not given), for which the Cellular reversion in assay [1] is 0%; in assay [4] it was 85%. The same compound had a pIC50 in assay [2] of 8.51.

Turning to `CN(C1Cc2cc(C#N)ccc2N(Cc2cncn2C)C1)S(=O)(=O)c1ccccc1` (stereo not given), the Cellular reversion in assay [1] was 45%. The compound further gave a pIC50 in assay [2] of 8.46.

In the case of `Cn1cncc1CN1CC(N(Cc2ccsc2)S(=O)(=O)c2ccccn2)Cc2cc(C#N)ccc21` (stereo not given), the Cellular reversion in assay [1] was 95%. Also, in assay [3], the pIC50 is 7.89.

`Cn1cnc(S(=O)(=O)N(Cc2ccccc2)C2Cc3cc(C#N)ccc3N(Cc3cncn3C)C2)c1` (stereo not given) returned a Cellular reversion in assay [1] of 75%. For the same compound, the pIC50 in assay [2] is 8.96.

`Cn1cncc1CN1CC(N(CC(=O)OC(C)(C)C)S(=O)(=O)c2ccccc2)Cc2cc(C#N)ccc21` (stereo not given) displayed a Cellular reversion in assay [1] of 75%. This compound had a pIC50 in assay [2] of 8.40.

In the case of `Cn1cnc(S(=O)(=O)N(Cc2ccsc2)C2Cc3cc(C#N)ccc3N(Cc3cncn3C)C2)c1` (stereo not given), in assay [1], the Cellular reversion stood at 65%.

The compound `Cn1cncc1CN1C[C@H](N(Cc2ccsc2)S(=O)(=O)c2ccccc2)Cc2cc(C#N)ccc21` gave a Cellular reversion in assay [1] of 80%. Besides, in assay [2], the pIC50 was 8.55.

`Cn1cncc1CN1CC(N(CC2CCCCC2)S(=O)(=O)c2ccccc2)Cc2cc(C#N)ccc21` (stereo not given): the Cellular reversion in assay [1] was 0%; in assay [4], 90%. In assay [2], this compound gave a pIC50 of 7.32.

Turning to `CN(C1Cc2cc(C#N)ccc2N(Cc2cncn2C)C1)S(=O)(=O)c1cnn(C)c1` (stereo not given), the values for the Cellular reversion in assay [1] and in assay [4] were 0% and 25%, respectively. This compound also showed a pIC50 in assay [2] of 8.12.

In turn, `Cn1cncc1CN1CC(N(CCc2ccccc2)S(=O)(=O)c2ccccc2)Cc2cc(C#N)ccc21` (stereo not given) registered a Cellular reversion in assay [1] of 0%. The compound further had a pIC50 in assay [2] below 5.30.

`Cn1cncc1CN1CC(N(Cc2ccccc2)S(=O)(=O)c2ccccc2)Cc2cc(C#N)ccc21` (stereo not given) had a Cellular reversion in assay [1] of 85%. In assay [2], this compound showed a negative logarithm of the IC50 (pIC50) of 8.52.

In the case of `Cn1cncc1CN1CC(N(Cc2ccsc2)S(=O)(=O)c2cccnc2)Cc2cc(C#N)ccc21` (stereo not given), in assay [1], the Cellular reversion was 85%. In addition, the pIC50 in assay [2] was 9.05.

In the case of `Cn1cncc1CN1CC(N(Cc2ccccc2)S(=O)(=O)c2ccccn2)Cc2cc(C#N)ccc21` (stereo not given), in assay [1], the Cellular reversion worked out at 90%. Also, the pIC50 in assay [2] is 8.59; in assay [3], above 7.70.

With `Cn1cc(S(=O)(=O)N(Cc2ccsc2)C2Cc3cc(C#N)ccc3N(Cc3cncn3C)C2)cn1` (stereo not given), the Cellular reversion in assay [1] was found to be 95%.
